In PubChem BioAssay (NCI):
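Method: 48-hour compound exposure of cells in 96-well plates, five concentrations, linear interpolation of endpoints. The concentration for 50% growth inhibition is given as GI50. TGI is the concentration that stops growth completely.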

Key:
Experiment in all cases: NCI-60 cell line screen, 48 h
SF-268 CNS = system: SF-268 CNS
HCC-2998 colon = system: HCC-2998 colon
TK-10 renal = system: TK-10 renal
HCT-15 colon = system: HCT-15 colon
UACC-257 melanoma = system: UACC-257 melanoma
HCT-116 colon = system: HCT-116 colon
COLO 205 colon = system: COLO 205 colon
NCI/ADR-RES ovarian = system: NCI/ADR-RES ovarian
T-47D breast = system: T-47D breast
RPMI-8226 leukemia = system: RPMI-8226 leukemia

## CCOC(=O)CSc1nnc(C(Sc2nc(-c3ccccc3)c(-c3ccccc3)[nH]2)C(C)C)n1-c1ccccc1 (stereo not given)
SF-268 CNS
  TGI: > 31.6 µM
HCC-2998 colon
  TGI: 43.5 µM
TK-10 renal
  TGI: > 31.6 µM
HCT-15 colon
  TGI: > 31.6 µM
UACC-257 melanoma
  TGI: 19.3 µM
HCT-116 colon
  TGI: > 31.6 µM
COLO 205 colon
  TGI: 28.6 µM
NCI/ADR-RES ovarian
  TGI: 84 µM
T-47D breast
  TGI: > 100 µM
RPMI-8226 leukemia
  TGI: > 86.9 µM

## Cc1ccc(/C(O)=C/C(=O)C(=O)NN=C(c2ccccc2)c2ccccc2)cc1
SF-268 CNS
  TGI: > 100 µM
HCC-2998 colon
  TGI: > 100 µM
TK-10 renal
  TGI: > 100 µM
HCT-15 colon
  TGI: > 100 µM
UACC-257 melanoma
  TGI: > 100 µM
HCT-116 colon
  TGI: > 100 µM
COLO 205 colon
  TGI: > 100 µM
NCI/ADR-RES ovarian
  TGI: > 100 µM
T-47D breast
  TGI: > 100 µM
RPMI-8226 leukemia
  TGI: > 100 µM

## CCOc1cc(NC(C)=O)ccc1C(=O)NN1C(=O)C(Cl)C1c1ccco1 (stereo not given)
SF-268 CNS
  TGI: 35.1 µM
HCC-2998 colon
  TGI: 29.5 µM
TK-10 renal
  TGI: 31.3 µM
HCT-15 colon
  TGI: 46.6 µM
UACC-257 melanoma
  TGI: 34.2 µM
HCT-116 colon
  TGI: 49.3 µM
COLO 205 colon
  TGI: 38.3 µM
NCI/ADR-RES ovarian
  TGI: > 100 µM
T-47D breast
  TGI: 40.3 µM
RPMI-8226 leukemia
  TGI: 45.5 µM

## CC(C)(CC(O)C#N)/[N+]([O-])=[N+](\[O-])C(C)(C)CC(O)C#N (stereo not given)
SF-268 CNS
  TGI: 83.1 µM
HCC-2998 colon
  TGI: 34.2 µM
TK-10 renal
  TGI: 96 µM
HCT-15 colon
  TGI: 38.5 µM
UACC-257 melanoma
  TGI: 58.1 µM
HCT-116 colon
  TGI: 32.7 µM
COLO 205 colon
  TGI: 31.7 µM
NCI/ADR-RES ovarian
  TGI: > 100 µM
T-47D breast
  TGI: 82.3 µM
RPMI-8226 leukemia
  TGI: 44.8 µM

## N#C/C(=C\c1c[nH]c2ccccc12)C(=O)c1ccc(O)c(O)c1
SF-268 CNS
  TGI: > 100 µM
HCC-2998 colon
  TGI: > 100 µM
TK-10 renal
  TGI: 98.2 µM
HCT-15 colon
  TGI: > 100 µM
UACC-257 melanoma
  TGI: > 100 µM
HCT-116 colon
  TGI: > 84.8 µM
COLO 205 colon
  TGI: > 67.7 µM
NCI/ADR-RES ovarian
  TGI: 70.1 µM
T-47D breast
  TGI: > 100 µM
RPMI-8226 leukemia
  TGI: > 31.6 µM

## COc1ccc(-n2cnc3c(NC(CCSC)C(=O)O)ncnc32)cc1 (stereo not given)
SF-268 CNS
  TGI: > 100 µM
HCC-2998 colon
  TGI: > 100 µM
TK-10 renal
  TGI: > 100 µM
HCT-15 colon
  TGI: > 100 µM
UACC-257 melanoma
  TGI: > 100 µM
HCT-116 colon
  TGI: > 100 µM
COLO 205 colon
  TGI: > 100 µM
NCI/ADR-RES ovarian
  TGI: > 100 µM
T-47D breast
  TGI: > 100 µM
RPMI-8226 leukemia
  TGI: > 100 µM

## CC(C)C1=CC23CCC4C(C)(C(=O)O)CCCC4(C)C2CC1C1C(=O)N(c2ccc(C(=O)O)cc2)C(=O)C13 (stereo not given)
SF-268 CNS
  TGI: > 100 µM
HCC-2998 colon
  TGI: > 100 µM
TK-10 renal
  TGI: > 100 µM
HCT-15 colon
  TGI: > 100 µM
UACC-257 melanoma
  TGI: > 100 µM
HCT-116 colon
  TGI: > 100 µM
COLO 205 colon
  TGI: > 100 µM
NCI/ADR-RES ovarian
  TGI: > 100 µM
T-47D breast
  TGI: > 100 µM
RPMI-8226 leukemia
  TGI: > 100 µM

## Fc1ccccc1C1SCc2nc3cc4ccccc4cc3n21 (stereo not given)
SF-268 CNS
  TGI: > 100 µM
HCC-2998 colon
  TGI: > 100 µM
TK-10 renal
  TGI: > 100 µM
HCT-15 colon
  TGI: > 100 µM
UACC-257 melanoma
  TGI: > 100 µM
HCT-116 colon
  TGI: > 100 µM
COLO 205 colon
  TGI: > 100 µM
NCI/ADR-RES ovarian
  TGI: > 100 µM
T-47D breast
  TGI: > 100 µM
RPMI-8226 leukemia
  TGI: > 100 µM

## CC1OC(O[C@H]2/C=C/C=C/C=C/C=C/C=C/C=C/C=C/[C@H](C)[C@@H](O)[C@@H](C)[C@H](C)OC(=O)CC(O)CC(O)CCC(O)C(O)CC(O)C[C@]3(O)C[C@H](O)C(C(=O)O)C(C2)O3)C(O)[C@H](N)C1O (stereo not given in full)
SF-268 CNS
  GI50: 2.06 µM
  TGI: 4.29 µM
HCC-2998 colon
  GI50: 5.36 µM
  TGI: 18.7 µM
TK-10 renal
  GI50: 2.66 µM
  TGI: 5.31 µM
HCT-15 colon
  GI50: 12 µM
  TGI: 54 µM
UACC-257 melanoma
  GI50: 1.75 µM
  TGI: 3.4 µM
HCT-116 colon
  GI50: 1.99 µM
  TGI: 4.05 µM
COLO 205 colon
  GI50: 4.19 µM
  TGI: 17.2 µM
NCI/ADR-RES ovarian
  GI50: 2.1 µM
  TGI: 5.16 µM
T-47D breast
  GI50: 16.4 µM
  TGI: 90.3 µM
RPMI-8226 leukemia
  GI50: 16.6 µM
  TGI: 59 µM

## c1ccc(CSCCc2ccncc2)cc1
SF-268 CNS
  TGI: > 100 µM
HCC-2998 colon
  TGI: > 100 µM
TK-10 renal
  TGI: > 100 µM
HCT-15 colon
  TGI: > 100 µM
UACC-257 melanoma
  TGI: > 100 µM
HCT-116 colon
  TGI: > 100 µM
COLO 205 colon
  TGI: > 100 µM
NCI/ADR-RES ovarian
  TGI: > 100 µM
T-47D breast
  TGI: > 100 µM
RPMI-8226 leukemia
  TGI: > 100 µM

## O=c1onc2c3ccccc3ncn12
SF-268 CNS
  TGI: > 100 µM
HCC-2998 colon
  TGI: > 100 µM
TK-10 renal
  TGI: > 100 µM
HCT-15 colon
  TGI: > 100 µM
UACC-257 melanoma
  TGI: > 100 µM
HCT-116 colon
  TGI: > 100 µM
COLO 205 colon
  TGI: > 100 µM
NCI/ADR-RES ovarian
  TGI: > 100 µM
T-47D breast
  TGI: > 100 µM
RPMI-8226 leukemia
  TGI: > 100 µM

## C[C@H]1C=C2[C@@H]3CC(C)(C(=O)O)CC[C@]3(C)CC[C@]2(C)[C@]2(C)CC[C@H]3C(C)(C)[C@@H](OC(=O)c4cccc5c(=O)c6ccccc6[nH]c45)CC[C@]3(C)[C@@H]12 (stereo not given in full)
SF-268 CNS
  TGI: > 100 µM
HCC-2998 colon
  TGI: > 100 µM
TK-10 renal
  TGI: > 100 µM
HCT-15 colon
  TGI: > 100 µM
UACC-257 melanoma
  TGI: > 100 µM
HCT-116 colon
  TGI: > 100 µM
COLO 205 colon
  TGI: > 100 µM
NCI/ADR-RES ovarian
  TGI: > 100 µM
T-47D breast
  TGI: 87.5 µM
RPMI-8226 leukemia
  TGI: > 100 µM

## CN(C)CCCN1c2ccccc2CCc2ccc([N+](=O)[O-])cc21
SF-268 CNS
  TGI: > 100 µM
HCC-2998 colon
  TGI: 28.5 µM
TK-10 renal
  TGI: 41.8 µM
HCT-15 colon
  TGI: 57.7 µM
UACC-257 melanoma
  TGI: 31.8 µM
HCT-116 colon
  TGI: > 100 µM
COLO 205 colon
  TGI: 32 µM
NCI/ADR-RES ovarian
  TGI: 42.1 µM
T-47D breast
  TGI: 34.1 µM
RPMI-8226 leukemia
  TGI: > 100 µM

## CCN(c1cccc(NC(=S)Nc2ccccc2N(CC)c2cc(-c3ccccc3)no2)c1)c1cc(-c2ccccc2)no1
SF-268 CNS
  TGI: > 100 µM
HCC-2998 colon
  TGI: > 100 µM
TK-10 renal
  TGI: > 100 µM
HCT-15 colon
  TGI: > 100 µM
UACC-257 melanoma
  TGI: > 100 µM
HCT-116 colon
  TGI: > 100 µM
COLO 205 colon
  TGI: > 100 µM
NCI/ADR-RES ovarian
  TGI: > 100 µM
T-47D breast
  TGI: > 100 µM
RPMI-8226 leukemia
  TGI: > 100 µM

## C=CCOC(=O)C1C2OC3(C(C(=O)OC)=C2C(=O)OC)c2ccccc2CCC13 (stereo not given)
SF-268 CNS
  TGI: > 10 µM
HCC-2998 colon
  TGI: > 10 µM
TK-10 renal
  TGI: > 10 µM
HCT-15 colon
  TGI: > 10 µM
UACC-257 melanoma
  TGI: > 10 µM
HCT-116 colon
  TGI: > 10 µM
COLO 205 colon
  TGI: > 10 µM
NCI/ADR-RES ovarian
  TGI: > 10 µM
T-47D breast
  TGI: > 10 µM
RPMI-8226 leukemia
  TGI: > 10 µM

## Cc1n[nH]c(=O)n1/N=C/c1ccc([N+](=O)[O-])o1
SF-268 CNS
  TGI: 45.6 µM
HCC-2998 colon
  TGI: 40.7 µM
TK-10 renal
  TGI: 36.8 µM
HCT-15 colon
  TGI: 26.2 µM
UACC-257 melanoma
  TGI: 27.7 µM
HCT-116 colon
  TGI: 30.2 µM
COLO 205 colon
  TGI: 20.8 µM
NCI/ADR-RES ovarian
  TGI: 70.3 µM
T-47D breast
  TGI: 40.6 µM
RPMI-8226 leukemia
  TGI: > 58.3 µM

## COC(=O)C1=C(OC(=O)c2ccccc2)C(C(=O)OC)[C@]2(O)[C@@H](C(=O)OC)[C@H]1C[C@@H](c1ccccc1)[C@@H]2C(=O)OC (stereo not given in full)
SF-268 CNS
  TGI: 36.8 µM
HCC-2998 colon
  TGI: 25 µM
TK-10 renal
  TGI: 69.9 µM
HCT-15 colon
  TGI: 35.4 µM
UACC-257 melanoma
  TGI: 84.6 µM
HCT-116 colon
  TGI: 14.2 µM
COLO 205 colon
  TGI: 21.8 µM
NCI/ADR-RES ovarian
  TGI: 14.1 µM
T-47D breast
  TGI: 33.8 µM
RPMI-8226 leukemia
  TGI: 13.8 µM
